Results on 2 compounds are retold here after patent US20090012088A1 (priority 2005, published 2009).

Test [1] deals with NAD^+ depletion in HL-60 cell lysate. In words: Whole cell assay screen: NAD+ depletion in H2O2-activated HL-60 cell lysate. In kind it is cell-based. As to the method:
To identify a non-toxic, non-DNA intercalating, cell permeable small molecule inhibitor of PARG, a high-throughput screen is devised. Given the severe challenges in isolating enough of the PAR substrate for an in vitro screen directly for PARG inhibition, we develop a primary screen that utilizes cell lysates and, in particular, mammalian cell lysates. In this assay, HL-60 cells are treated with H2O2 to damage their DNA (which activates PARP-1) and then lyse the cells. In individual wells of a 384-well plate, this cell lysate is incubated with 22,000 different small molecules from an in-house compound collection; these compounds are either purchased (from ChemBridge Corp.) or collected from various sources at the University of Illinois. (28) NAD^+ levels are measured using a fluorescent method based on the chemical conversion of NAD^+ to a fluorescent product (29, 30) (FIG. 14A). The amount of NAD^+ consumed in each well is monitored, and any compounds that prevent NAD^+ consumption are classified “hits” in this primary screen.
Library screen: 12.5 μL of Lysing PARP buffer (50 mM Tris, 10 mM MgCl2, pH 8.0, 1% Triton X-100) containing 100 μM NAD^+ is added to each well of a 384-well plate. Library compounds at 10 mM in DMSO are transferred using a 384-well pin transfer device that delivers 0.1 μL. HL-60 cells are spun down at 200 g for 5 min. and resuspended in Lysing PARP buffer to a concentration of 8×10^6 cells/mL. 10 μL of a 30% H2O2 solution is added per mL of cells. 12.5 μL of the activated cell lysate is added to the plates. The plates are incubated for 60 min. at 37° C. The concentration of NAD^+ is then determined using a fluorescent assay^1. 10 μL of a 2 M KOH solution and 10 μL of a 20% acetophenone solution (in ethanol) is added to each well. The plate is then incubated at 4° C. for 10 min. 45 μL of a 88% formic acid solution was added to each well. The plate was then incubated for 5 min. in a 110° C. oven. Once the plate cools, the fluorescent intensity of each well is determined on a Criterion Analyst AD (Molecular Devices) with an excitation of 360 nm and an emission of 445 nm.

Test [2] has as its system neuronally differentiated SK-N-SH cells. In words: Protection from rotenone induced toxicity in neuronally differentiated SK-N-SH cells. In kind it is cell-based. Conditions: Homo sapiens, 10 μM rotenone. As to the method: In vivo MPTP is metabolized to its active form, the 1-methyl-4-phenylpyridinium ion (MPP^+), and MPP^+ has proven very useful in a variety of cell culture models of PD. To determine the protective effect of PIP-1 on cells subjected to MPP^+ insult, PC-12 (differentiated as above) and SK-N-SH (differentiated with retinoic acid for 12 days) cells are treated with 10 μM MPP^+ and a range of PIP-1 concentrations, and cell death is assessed by propidium iodide staining and flow cytometry. […] As shown in FIGS. 20A and 20B, PIP-1 also protects differentiated PC-12 and SK-N-SH cells from rotenone-induced toxicity as well.
Cell culture conditions: HL-60 and SK-N-SH cells are grown in RPMI 1640 media supplemented with 10% FBS and PC-12 cells are grown in RPMI 1640 media supplemented with 10% HS and 5% FBS. All cell lines are incubated at 37° C. in a 5% CO2, 95% air atmosphere. HL-60 cells are split every two to three days as needed and SK-N-SH cells are split when they reach approximately 90% confluency at a 1:6 ratio. […]
Protection of Rotenone and MPP^+ induced toxicity in PC-12 and SK-N-SH cells: SK-N-SH and PC-12 cells are neuronally differentiated as described above. […] The cells are then washed in PBS and the viability is determined by adding propidium iodide to 1 μg/mL and measuring the fluorescent intensity of each cell by flow cytometry.

Test [3] deals with PARG (Bos taurus, UniProt O02776). Kind of test: Inhibition of PARG activity in vitro (quantitation of free ADP-ribose with benzamidine, fluorescence). Format: biochemical. On the set-up: purchased Biomol. As to the method:
PARG assay: Production and purification of PAR. PARP-1 (20 units) is added to 900 μL of PARP assay buffer containing 1 mM NAD^+ and 22.5 μg activated DNA. This reaction was run at 37° C. for 30 min and stopped by the addition of 300 μL of cold 100% trichloroacetic acid. The proteins thus precipitated are collected by centrifugation at 18,000 g for 30 min at 4° C. After removal of the supernatant, 1 mL of 1 M NaOH and 100 mM EDTA are added to the pellet and incubated for 2 h at 37° C. to cleave the PAR from the PARP protein acceptor. Then 9 mL of PAR buffer A (250 mM ammonium acetate, 6 M guanidinium HCl, 10 mM EDTA, pH 9.0) is added to the PAR and applied to a PROSEP-PB (Millipore) phenyl boronate column that is pre-equilibrated with PAR buffer A. The flowthrough is then reapplied to the column to ensure that all PAR is bound. The column is then washed with 25 mL of PAR buffer A, followed by 10 mL of PAR buffer B (1 M ammonium acetate and 1 mM EDTA, pH 9.0). The bound PAR is eluted with 4 mL of water collected in 1-mL fractions. Fractions containing PAR are pooled and concentrated. The concentration, measured as monomer, is determined by measuring the absorbance at 258 nm. PAR has an extinction coefficient of 13,500 cm^−1 at 258 nm.
Inhibition of PARG Activity: To determine the PARG IC50 values of the compounds, 39 μL of a 25.6 μM solution of PAR in PARG assay (50 mM KCl, 50 mM KH2PO4, pH 7.2) buffer and 1 μL of the compounds at varying concentrations (in PARG assay buffer) are added into the wells of a 384-well plate. The reaction is initiated by the addition of 10 μL of PARG (Biomol) at a concentration of 1 ng/ml (in PARG assay buffer), bringing the final concentration to […] and 20 μM PAR with varying concentrations of compounds in a total volume of 50 μL. The plate is incubated for 20 min at room temperature. The amount of free ADP-ribose hemiacetals is determined by the addition of 5 μL of an aqueous 8.5M KOH solution and 5 μL of an aqueous 850 μM benzamidine solution to each well. The plate is then incubated for 10 min in an oven set at 110° C. The plate is allowed to cool and then read on a Criterion Analyst AD with an excitation of 360 nm and an emission of 445 nm.

pEC50, pIC50: −log10 of the molar value. “Also recorded” adds a separate entry of the source. Read-outs that look alike come from different tables or passages of the source.

Sequence of PARG (O02776 whole entry): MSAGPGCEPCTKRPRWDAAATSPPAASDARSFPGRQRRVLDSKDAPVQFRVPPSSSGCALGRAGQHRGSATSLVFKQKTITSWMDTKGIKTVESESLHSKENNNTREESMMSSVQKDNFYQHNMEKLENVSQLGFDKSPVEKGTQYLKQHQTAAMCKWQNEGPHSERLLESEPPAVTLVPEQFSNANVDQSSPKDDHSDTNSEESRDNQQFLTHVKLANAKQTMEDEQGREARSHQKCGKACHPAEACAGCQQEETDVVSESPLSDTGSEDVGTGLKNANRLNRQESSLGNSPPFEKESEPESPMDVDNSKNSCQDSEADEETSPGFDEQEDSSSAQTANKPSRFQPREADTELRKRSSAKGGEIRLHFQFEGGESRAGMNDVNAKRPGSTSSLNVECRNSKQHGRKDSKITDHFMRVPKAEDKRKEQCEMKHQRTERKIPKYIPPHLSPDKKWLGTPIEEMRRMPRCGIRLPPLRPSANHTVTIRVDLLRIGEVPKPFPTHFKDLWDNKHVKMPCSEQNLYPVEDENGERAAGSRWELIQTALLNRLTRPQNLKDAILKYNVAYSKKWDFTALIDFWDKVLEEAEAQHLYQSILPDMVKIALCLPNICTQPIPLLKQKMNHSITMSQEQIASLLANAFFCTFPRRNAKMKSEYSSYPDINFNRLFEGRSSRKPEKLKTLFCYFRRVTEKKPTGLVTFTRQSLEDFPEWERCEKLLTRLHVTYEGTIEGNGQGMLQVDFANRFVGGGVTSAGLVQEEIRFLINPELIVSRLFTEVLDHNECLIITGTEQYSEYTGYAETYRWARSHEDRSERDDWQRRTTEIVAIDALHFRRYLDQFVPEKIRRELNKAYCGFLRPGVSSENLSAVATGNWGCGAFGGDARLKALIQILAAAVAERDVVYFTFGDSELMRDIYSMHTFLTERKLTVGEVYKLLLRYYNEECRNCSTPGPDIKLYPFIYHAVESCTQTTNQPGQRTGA

With `CN(C)c1cnn(-c2ccccc2)c(=O)c1N` [PIP-1, 4-Amino-5-dimethylamino-2-phenyl-2H-pyridazin-3-one], the “Inhibition of NAD+ depletion in the whole cell assay” value in test [1] is reported as “inhibit NAD^+ depletion”. This compound also showed a pEC50 in test [2] of 5.66. In test [3], the pIC50 was 6.31 and the “PARG inhibition in vitro (in words)” value is “inhibits PARG in vitro in a dose-dependent manner; also recorded: inhibits PARG in vitro in a dose dependent manner; also recorded: inhibit PARG activity in vitro”.

Regarding `Nc1c(Cl)cnn(-c2ccccc2)c1=O` [compound 5, 4-Amino-5-chloro-2-phenyl-2H-pyridazin-3-one], the “Inhibition of NAD+ depletion in the whole cell assay” value in test [1] is “do not inhibit NAD^+ depletion”. Besides, the “PARG inhibition in vitro (in words)” value in test [3] was “inactive; also recorded: does not inhibit PARG”; in test [3] (listed as analogue 5), “do not inhibit NAD^+ depletion or PARG activity”.
